In patent publication US10597388B2, “Pyridazinone herbicides” (FMC CORPORATION, priority 2014, dated 2020):

Key:
Type in all cases: in vivo
[1] = test system: ducksalad (Heteranthera limosa); experiment: Test B flooded paddy test; details: 250 g ai/ha, Flood; visual rating on scale of 0 to 100 where 0 is no effect and 100 is complete control; 13 to 15 d after treatment
Procedure, shortened: (§1)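 Plants at the 2-leaf stage were flooded to 3 cm above soil, and test compounds were applied directly into the paddy water, which was held at that depth throughout. After 13 to 15 d in a greenhouse, injury was rated visually against untreated controls on a 0–100 scale (0 no effect, 100 complete control).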

[2] = test system: sedge, umbrella (small-flower umbrella sedge, Cyperus difformis); experiment: Test B flooded paddy test; details: 250 g ai/ha, Flood; visual rating on scale of 0 to 100 where 0 is no effect and 100 is complete control; 13 to 15 d after treatment
Procedure, shortened: as §1

[3] = test system: barnyardgrass (Echinochloa crus-galli); experiment: Test B flooded paddy test; details: 250 g ai/ha, Flood; visual rating on scale of 0 to 100 where 0 is no effect and 100 is complete control; 13 to 15 d after treatment
Procedure, shortened: as §1

rice (Oryza sativa) = experiment: Test B flooded paddy test; details: 250 g ai/ha, Flood; visual rating on scale of 0 to 100 where 0 is no effect and 100 is complete control; 13 to 15 d after treatment
Procedure, shortened: as §1

[4] = test system: galium (catchweed bedstraw, Galium aparine); experiment: Test A greenhouse herbicide test, postemergence; details: for Plant response rating, Galium: 125 g ai/ha; for Galium plant response rating: 500 g ai/ha, 0 to 100 scale, 0 is no effect, 100 is complete control
Procedure, shortened: (§2)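 Plants grown in loam soil/sand blend pots were treated postemergence at 2 to 10 cm height, one- to two-leaf stage, with formulated test chemicals. After approximately 10 d in a greenhouse, injury was rated visually against untreated controls on a 0 to 100 scale (0 no effect, 100 complete control).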

[5] = test system: blackgrass (Alopecurus myosuroides); experiment: Test A greenhouse herbicide test, postemergence; details: for Plant response rating, Blackgrass: 125 g ai/ha; for Blackgrass plant response rating: 500 g ai/ha, 0 to 100 scale, 0 is no effect, 100 is complete control
Procedure, shortened: as §2

[6] = test system: pigweed (Amaranthus retroflexus); experiment: Test A greenhouse herbicide test, pre- and postemergence
Description: (§3) Seeds of plant species selected from barnyardgrass (Echinochloa crus-galli), kochia (Kochia scoparia), ragweed (common ragweed, Ambrosia elatior), ryegrass, Italian (Italian ryegrass, Lolium multiflorum), crabgrass, large (large crabgrass, Digitaria sanguinalis), foxtail, giant (giant foxtail, Setaria faberii), momingglory (Ipomoea spp.), pigweed (Amaranthus retroflexus), velvetleaf (Abutilon theophrasti), wheat (Triticum aestivum), and corn (Zea mays) were planted into a blend of loam soil and sand and treated preemergence with a directed soil spray using test chemicals formulated in a non-phytotoxic solvent mixture which included a surfactant.
(§4) At the same time, plants selected from these crop and weed species and also blackgrass (Alopecurus myosuroides), and galium (catchweed bedstraw, Galium aparine) were planted in pots containing the same blend of loam soil and sand and treated with postemergence applications of test chemicals formulated in the same manner. Plants ranged in height from 2 to 10 cm and were in the one- to two-leaf stage for the postemergence treatment. Treated plants and untreated controls were maintained in a greenhouse for approximately 10 d, after which time all treated plants were compared to untreated controls and visually evaluated for injury. Plant response ratings, summarized in Table A, are based on a 0 to 100 scale where 0 is no effect and 100 is complete control. A dash (-) response means no test result.

[7] = test system: wheat (Triticum aestivum); experiment: as above; details: Postemergence; for Plant response rating, Wheat: 125 g ai/ha, 0 to 100 scale where 0 is no effect and 100 is complete control; for Wheat plant response rating: 500 g ai/ha, 0 to 100 scale, 0 is no effect, 100 is complete control
Description: as §3, §4

[8] = test system: barnyardgrass (Echinochloa crus-galli); experiment: as above
Description: as §3, §4

[9] = test system: ryegrass, Italian (Italian ryegrass, Lolium multiflorum); experiment: as above
Description: as §3, §4

[10] = test system: ragweed (common ragweed, Ambrosia elatior); experiment: as above
Description: as §3, §4

corn (Zea mays) = experiment: as above; details: Postemergence; for Plant response rating, Corn: 125 g ai/ha; for Corn plant response rating: 500 g ai/ha, 0 to 100 scale, 0 is no effect, 100 is complete control
Description: as §3, §4

kochia (Kochia scoparia) = experiment: as above
Description: as §3, §4

[11] = test system: foxtail, giant (giant foxtail, Setaria faberii); experiment: as above
Description: as §3, §4

[12] = visual rating after approx. 10 d, 0 to 100 scale (0 no effect, 100 complete control)
[13] = Postemergence, 125 g ai/ha, visual rating after approx. 10 d, 0 to 100 scale (0 no effect, 100 complete control)
[14] = Postemergence, 500 g ai/ha, 0 to 100 scale, 0 is no effect, 100 is complete control
[15] = Preemergence, 125 g ai/ha, 0 to 100 scale where 0 is no effect and 100 is complete control
[16] = Preemergence, 500 g ai/ha, 0 to 100 scale, 0 no effect, 100 complete control
[17] = Postemergence, 125 g ai/ha, 0 to 100 scale where 0 is no effect and 100 is complete control
[18] = 0 to 100 scale where 0 is no effect and 100 is complete control

Cc1ccc2c(c1)c(-c1c(O)c(C)nn(C)c1=O)c(C)n2C [Compound 31]
Plant response rating, Ducksalad [1]: 0 | Plant response rating, Sedge, Umbrella [2]: 0 | Plant response rating, Barnyardgrass [3]: 0 | Plant response rating, Rice (rice (Oryza sativa)): 0 | Plant response rating, Galium [4, 12]: 20 | Galium plant response rating [4]: 70 | Plant response rating, Blackgrass [5, 12]: 0 | Blackgrass plant response rating [5]: 20 | Plant response rating, Pigweed [6, 13]: 20 | Pigweed plant response rating [6, 14]: 40 | Pigweed plant response rating [6, 15]: 0 | Plant response rating, Pigweed [6, 16]: 0 | Plant response rating, Wheat [7]: 0 | Wheat plant response rating [7]: 0 | Plant response rating, Barnyardgrass [8, 13]: 0 | Barnyardgrass plant response rating [8, 14]: 10 | Barnyardgrass plant response rating [8, 15]: 0 | Plant response rating, Barnyardgrass [8, 16]: 0 | Plant response rating, Ryegrass, Italian [9, 17]: 0 | Ryegrass, Italian plant response rating [9, 14]: 0 | Ryegrass, Italian plant response rating [9, 15]: 0 | Plant response rating, Ryegrass, Italian [9, 16]: 0 | Plant response rating, Ragweed [10, 13]: 0 | Ragweed plant response rating [10, 14]: 20 | Ragweed plant response rating [10, 15]: 0 | Plant response rating, Ragweed [10, 16]: 30 | Plant response rating, Corn (corn (Zea mays); [12]): 0 | Corn plant response rating (corn (Zea mays)): 0 | Plant response rating, Kochia (kochia (Kochia scoparia); [13]): 0 | Kochia plant response rating (kochia (Kochia scoparia); [14]): 0 | Kochia plant response rating (kochia (Kochia scoparia); [15]): 0 | Plant response rating, Kochia (kochia (Kochia scoparia); [16]): 0 | Plant response rating, Foxtail, Giant [11, 13]: 0 | Foxtail, Giant plant response rating [11, 14]: 10 | Foxtail, Giant plant response rating [11, 15]: 0 | Plant response rating, Foxtail, Giant [11, 16]: 0

Cc1sc2ccccc2c1-c1c(O)cnn(C)c1=O [Compound 48]
Plant response rating, Ducksalad [1]: 0 | Plant response rating, Sedge, Umbrella [2]: 0 | Plant response rating, Barnyardgrass [3]: 0 | Plant response rating, Rice (rice (Oryza sativa)): 0 | Plant response rating, Galium [4, 18]: 90 | Galium plant response rating [4]: 90 | Plant response rating, Blackgrass [5, 18]: 0 | Blackgrass plant response rating [5]: 30 | Plant response rating, Pigweed [6, 17]: 60 | Pigweed plant response rating [6, 14]: 70 | Pigweed plant response rating [6, 15]: 30 | Plant response rating, Pigweed [6, 16]: 30 | Plant response rating, Wheat [7]: 0 | Wheat plant response rating [7]: 0 | Plant response rating, Barnyardgrass [8, 17]: 10 | Barnyardgrass plant response rating [8, 14]: 50 | Barnyardgrass plant response rating [8, 15]: 0 | Plant response rating, Barnyardgrass [8, 16]: 0 | Plant response rating, Ryegrass, Italian [9, 17]: 50 | Ryegrass, Italian plant response rating [9, 14]: 60 | Ryegrass, Italian plant response rating [9, 15]: 20 | Plant response rating, Ryegrass, Italian [9, 16]: 60 | Plant response rating, Ragweed [10, 17]: 0 | Ragweed plant response rating [10, 14]: 20 | Ragweed plant response rating [10, 15]: 10 | Plant response rating, Ragweed [10, 16]: 60 | Plant response rating, Corn (corn (Zea mays); [18]): 0 | Corn plant response rating (corn (Zea mays)): 0 | Plant response rating, Kochia (kochia (Kochia scoparia); [17]): 70 | Kochia plant response rating (kochia (Kochia scoparia); [14]): 80 | Kochia plant response rating (kochia (Kochia scoparia); [15]): 0 | Plant response rating, Kochia (kochia (Kochia scoparia); [16]): 10 | Plant response rating, Foxtail, Giant [11, 17]: 50 | Foxtail, Giant plant response rating [11, 14]: 60 | Foxtail, Giant plant response rating [11, 15]: 0 | Plant response rating, Foxtail, Giant [11, 16]: 10
